Measurements as given in patent US12129246B1, “Hydroquinazoline derivatives for the treatment of a disease or disorder” (Novartis AG, priority 2023, dated 2024).
Like-named read-outs stand apart in the source and are kept apart here.

Tests used:
[1] = molecular target: monkey NPR1 (Macaca fascicularis, UniProt A0A7N9DBT9); assay: Cellular cGMP production assay, monkey NPR1 expressing CHO-K1 cells (CisBio HTRF); assay type: cell-based; settings: for Monkey NPR1 Amax (% of ANP): maximum cGMP production as percentage of the maximum cGMP produced with ANP
Sequence of monkey NPR1 (A0A7N9DBT9 entry or part of it): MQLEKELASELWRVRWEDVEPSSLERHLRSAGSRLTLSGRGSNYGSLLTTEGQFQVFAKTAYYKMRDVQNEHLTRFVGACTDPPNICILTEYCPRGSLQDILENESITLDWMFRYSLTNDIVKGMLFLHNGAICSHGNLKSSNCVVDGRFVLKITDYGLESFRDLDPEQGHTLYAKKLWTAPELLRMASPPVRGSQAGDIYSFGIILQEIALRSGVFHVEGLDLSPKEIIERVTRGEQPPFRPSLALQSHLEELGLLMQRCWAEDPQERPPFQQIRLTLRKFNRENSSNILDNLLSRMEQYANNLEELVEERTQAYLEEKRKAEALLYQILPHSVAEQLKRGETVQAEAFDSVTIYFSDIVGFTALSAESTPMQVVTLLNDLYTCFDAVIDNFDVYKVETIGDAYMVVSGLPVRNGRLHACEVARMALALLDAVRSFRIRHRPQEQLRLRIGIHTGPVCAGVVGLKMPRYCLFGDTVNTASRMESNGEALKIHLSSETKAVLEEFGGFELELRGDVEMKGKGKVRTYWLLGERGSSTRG
In short: (§1)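 Step 1: add buffer (PBS, 0.1% BSA, 1 mM IBMX) and compounds, 3-fold series from 30 μM top. Step 2: incubate 30 min, 37 °C. Step 3: lyse; HTRF reagents 1 h at RT.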

[2] = molecular target: T1, human NPR1 (Homo sapiens, UniProt P16066); assay: Cellular cGMP production assay, human NPR1 expressing CHO-K1 cells (CisBio HTRF); assay type: cell-based; settings: for AC50: cGMP production, 30 min at 37° C., 12-point dose-response from 30 μM; for Human NPR1 Amax (% of ANP): maximum cGMP production as percentage of the maximum cGMP produced with ANP
T1 construct: host or cells: CHO-K1
T1 sequence (P16066 33-1061): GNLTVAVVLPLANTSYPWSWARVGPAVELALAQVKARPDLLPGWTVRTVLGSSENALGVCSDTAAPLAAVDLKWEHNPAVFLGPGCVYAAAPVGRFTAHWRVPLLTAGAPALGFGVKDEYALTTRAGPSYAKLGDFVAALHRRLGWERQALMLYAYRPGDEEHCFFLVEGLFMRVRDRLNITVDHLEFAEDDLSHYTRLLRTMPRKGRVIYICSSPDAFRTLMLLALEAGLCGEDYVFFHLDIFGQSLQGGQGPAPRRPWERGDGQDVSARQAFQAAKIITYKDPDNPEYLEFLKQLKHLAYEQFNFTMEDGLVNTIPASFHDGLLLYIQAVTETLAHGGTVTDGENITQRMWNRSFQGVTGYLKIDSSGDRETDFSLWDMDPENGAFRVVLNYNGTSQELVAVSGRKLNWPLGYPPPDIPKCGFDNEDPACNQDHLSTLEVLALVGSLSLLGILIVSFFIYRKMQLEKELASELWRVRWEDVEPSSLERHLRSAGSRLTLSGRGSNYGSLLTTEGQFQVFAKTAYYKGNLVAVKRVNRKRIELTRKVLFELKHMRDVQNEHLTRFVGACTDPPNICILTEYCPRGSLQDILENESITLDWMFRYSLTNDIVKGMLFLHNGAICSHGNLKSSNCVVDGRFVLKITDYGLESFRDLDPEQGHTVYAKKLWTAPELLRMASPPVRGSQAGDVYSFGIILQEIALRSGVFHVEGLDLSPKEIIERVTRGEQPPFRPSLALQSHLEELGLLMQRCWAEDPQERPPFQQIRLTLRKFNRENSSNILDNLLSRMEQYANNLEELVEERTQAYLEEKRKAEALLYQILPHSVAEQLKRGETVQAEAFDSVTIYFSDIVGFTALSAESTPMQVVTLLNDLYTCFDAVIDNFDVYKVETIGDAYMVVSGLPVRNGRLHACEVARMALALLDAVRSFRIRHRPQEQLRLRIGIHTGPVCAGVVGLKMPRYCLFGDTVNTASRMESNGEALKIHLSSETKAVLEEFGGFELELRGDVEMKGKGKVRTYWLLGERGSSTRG
In short: as §1

[3] = cGMP production, monkey NPR1 CHO-K1 cells, 30 min at 37° C., 12-point dose-response from 30 μM, read-out: Monkey NPR1 AC50

| Compound | AC50 [1] | Monkey NPR1 Amax (% of ANP) ([1]; monkey NPR1 CHO-K1 cells) | AC50 [2] | Human NPR1 Amax (% of ANP) [2] | AC50 [1, 3] |
| --- | --- | --- | --- | --- | --- |
| C[C@@H](Nc1nc2c(c(N[C@@H](CN3C4CCCC3CCC4)c3cnn(C)c3)n1)C[C@H](c1ccccc1)CC2)c1ccc(C(=O)O)c(F)c1 [Compound 168, 4-((R)-1-(((R)-4-(((R)-2-((1S,5S)-9-azabicyclo[3.3.1]nonan-9-yl)-1-(1-methyl-1H-pyrazol-4-yl)ethyl)amino)-6-phenyl-5,6,7,8-tetrahydroquinazolin-2-yl)amino)ethyl)-2-fluorobenzoic acid] | 1540 nM | 93.654 % of ANP | 2230 nM | 96.777 % of ANP | – |
| CC[C@H]([C@H]1CC[C@H](C(=O)O)CC1)N(C)c1nc2c(c(N[C@@H](CN3C4CCCC3COC4)c3cnn(C)c3)n1)C[C@H](c1ccccc1)CC2 [Compound 169, (1R,4r)-4-((R)-1-(((R)-4-(((R)-2-((1R,5S)-3-oxa-9-azabicyclo[3.3.1]nonan-9-yl)-1-(1-methyl-1H-pyrazol-4-yl)ethyl)amino)-6-phenyl-5,6,7,8-tetrahydroquinazolin-2-yl)(methyl)amino)propyl)cyclohexane-1-carboxylic acid] | 1920 nM | 96.574 % of ANP | 2670 nM | 67.375 % of ANP | – |
| CC[C@H]([C@H]1CC[C@H](C(=O)O)CC1)N(C)c1nc2c(c(N[C@@H](CN3CCC[C@H](C)C3)c3cnn(C)c3)n1)CN(c1cccc(Cl)c1)CC2 [Compound 170, (1R,4r)-4-((R)-1-((6-(3-chlorophenyl)-4-(((R)-1-(1-methyl-1H-pyrazol-4-yl)-2-((S)-3-methylpiperidin-1-yl)ethyl)amino)-5,6,7,8-tetrahydropyrido[4,3-d]pyrimidin-2-yl)(methyl)amino)propyl)cyclohexane-1-carboxylic acid] | – | 124.109 % of ANP | 2740 nM | 97.591 % of ANP | 790 nM |
| CC(C)n1cc([C@H](CN2CCCCC2)Nc2nc(N[C@H](C)c3ccc(C(=O)O)cc3)nc3c2C[C@H](c2ccccc2)CC3)cn1 [Compound 171, 4-((R)-1-(((R)-4-(((R)-1-(1-isopropyl-1H-pyrazol-4-yl)-2-(piperidin-1-yl)ethyl)amino)-6-phenyl-5,6,7,8-tetrahydroquinazolin-2-yl)amino)ethyl)benzoic acid] | – | 83.963 % of ANP | 2770 nM | 96.419 % of ANP | 2320 nM |
| CC[C@@H](N(C)c1nc2c(c(N[C@@H](CN3C4CCCC3CCC4)c3ccnn3C)n1)C[C@H](c1ccccc1)CC2)C12CC(C(=O)O)(C1)C2 [Compound 172, 3-((R)-1-(((R)-4-(((S)-2-((1R,5R)-9-azabicyclo[3.3.1]nonan-9-yl)-1-(1-methyl-1H-pyrazol-5-yl)ethyl)amino)-6-phenyl-5,6,7,8-tetrahydroquinazolin-2-yl)(methyl)amino)propyl)bicyclo[1.1.1]pentane-1-carboxylic acid] | 2580 nM | 111.107 % of ANP | 3680 nM | 94.632 % of ANP | – |
| CC[C@H]([C@H]1CC[C@H](C(=O)O)CC1)N(C)c1nc2c(c(N[C@H](c3cnn(C)c3)C(C)(C)N3CCCCC3)n1)C[C@H](c1ccccc1)CC2 [Compound 173, (1R,4r)-4-((R)-1-(methyl((R)-4-(((R)-2-methyl-1-(1-methyl-1H-pyrazol-4-yl)-2-(piperidin-1-yl)propyl)amino)-6-phenyl-5,6,7,8-tetrahydroquinazolin-2-yl)amino)propyl)cyclohexane-1-carboxylic acid] | – | 102.204 % of ANP | 4200 nM | 102.335 % of ANP | 2580 nM |
| CC[C@H]([C@H]1CC[C@H](C(=O)O)CC1)N(C)c1nc2c(c(N[C@@H](CN3CCC[C@H](C)C3)c3cnn(C)c3)n1)CN(c1cccc(C#N)c1)CC2 [Compound 174, (1R,4r)-4-((R)-1-((6-(3-cyanophenyl)-4-(((R)-1-(1-methyl-1H-pyrazol-4-yl)-2-((S)-3-methylpiperidin-1-yl)ethyl)amino)-5,6,7,8-tetrahydropyrido[4,3-d]pyrimidin-2-yl)(methyl)amino)propyl)cyclohexane-1-carboxylic acid] | – | 97.462 % of ANP | 14 nM | 93.788 % of ANP | 10 nM |
